Results taken from patent US20220273809A1, “AXL ANTIBODY-DRUG CONJUGATES FOR USE IN TREATING CANCER” (GENMAB A/S, priority 2019, published 2022).
Non-standard residues stand in square brackets, D forms with d. Residues, ends and D or L forms follow the SMILES beside them. *: point of attachment. Dolaproine = CO[C@@H]([C@@H]1CCCN1)[C@@H](C)C(=O)O; Dil = CC[C@H](C)[C@H](NC)[C@@H](CC(=O)O)OC; X1 = C[C@@H](N*)[C@@H](O)c1ccccc1; NMeV = CN[C@H](C(=O)O)C(C)C

Key:
LCLC-103H cells [1] = assay: Extracellular ATP release in vitro (CellTiterGlo); assay type: cell-based, human; conditions: 48 hr, 100% PBS; ADC 2 μg/mL, paclitaxel 1 μM, MMAE 10 or 50 nM
Method: (§1) LCLC-103H or MDA-MB-231 cells were seeded in quadruplicate at 25,000 cells per well for LCLC-103H cells or 125,000 cells per well for MDA-MB-231 cells in 24-well plates and grown 3 hours at 37° C. Subsequently, IgG1-AXL-107-vcMMAE (2 μg/mL), free monomethyl auristatin E (MMAE; 10 or 50 nM), paclitaxel (1 μM), or isotype control ADC (IgG1-b12-vcMMAE; 2 μg/mL) were added per well.
(§2) Plates were incubated for 48 hr at 37° C. and after incubation each well was washed with 200 μL PBS. After the final wash, PBS was replaced with 200 μL fresh 100% PBS or 70% PBS (hypotonic) for the indicated times, harvested and transferred to a 96-well plate, and then spun at 1000 rpm for 2 min at RT. Supernatants were transferred to a new 96-well (optiwhite) plate and ATP was measured using CellTiterGlo Luminescent Cell Viability Assay (Promega, Cat.no G7570) according to manufacturer's instructions. All steps were performed with ice-cold PBS and in the dark.

MDA-MB-231 cells [2] = assay: Extracellular ATP release in vitro (CellTiterGlo); assay type: cell-based, human; conditions: 48 hr
Method: as §1, §2

LCLC-103H cells [3] = assay: HMGB1 secretion in vitro (ELISA); assay type: cell-based, human; conditions: 48 hrs; ADC 2 μg/mL, MMAE 10 or 50 nM, paclitaxel 1 μM
Method: (§3) MDA-MB-231 or LCLC-103H cells were seeded in quadruplicate at 125,000 cells per well (MDA-MB-231) or 25,000 cells/well (LCLC-103H) in 24-well plates and grown 3-4 hrs at 37° C. Subsequently, IgG1-AXL-107-vcMMAE (2 μg/mL), free monomethyl auristatin E (MMAE; 10 or 50 nM), paclitaxel (1 μM), or isotype control ADC (IgG1-b12-vcMMAE; 2 μg/mL) were added to the wells and plates were incubated for 48 hrs at 37° C. After incubation cells were pelleted at 1000 rpm for 3 min at RT and supernatants were transferred to a new 96-wells plate. HMGB1 was measured in the supernatant using a HMGB1-specific ELISA kit (IBL, Cat.no ST51011) according to manufacturer's instructions.

MDA-MB-231 cells [4] = assay: HMGB1 secretion in vitro (ELISA); assay type: cell-based, human; conditions: 48 hrs; ADC 2 μg/mL, MMAE 10 or 50 nM, paclitaxel 1 μM
Method: as §3

LCLC-103H cells [5] = assay: Calreticulin surface expression in vitro (flow cytometry); assay type: cell-based, human; conditions: 48 h; for cell surface expression of calreticulin (MFI) compared to untreated cells: ADCs 2 μg/mL, MMAE 10 or 50 nM, paclitaxel 1 μM; for percentage of calreticulin positive cells: compared to untreated or isotype control ADC
Method: (§4) LCLC-103H or MDA-MB-231 cells were grown to 70% to 80% confluence in 6-well plates, washed with serum-free medium and incubated with IgG1-AXL-107-vcMMAE (2 μg/mL), free monomethyl auristatin E (MMAE, SAFC, cat.no SG10; 10 or 50 nM), paclitaxel (1 μM), or isotype control ADC (IgG1-b12-vcMMAE; 2 μg/mL) in serum-free medium (RPMI1640, Lonza BE17-603E) for 48 hours (LCLC-103H) or 72 hours (MDA-MB-231). After incubation, supernatant and cells were collected and washed in PBS/0.1% BSA/0.02% azide (FACS buffer). Cells were then incubated with a phycoerythrin (PE)-conjugated mouse anti-human calreticulin antibody (Enzo, Cat no. ADI-SPA-601PE-D, lot. 10021835) for 30 min at 4° C. in the dark. A PE-conjugated mouse isotype control antibody (Enzo, cat no. ADI-SAB-600PE-D, lot. 08071817) was included as a control. After washing with FACS buffer, cells were analyzed with flow cytometry in the presence of DAPI (BD; cat no. 564907, lot. 8012653) or TO-PRO-3 (Thermo Fisher, cat no. T3605, lot. 1976612). Calreticulin expression was determined as PE positive cells and the percentage of calreticulin positive cells over isotype control was obtained on DAPI or TO-PRO-3 negative cells.

MDA-MB-231 cells [6] = assay: as above; assay type: cell-based, human; conditions: 72 h; for cell surface expression of calreticulin (MFI) compared to untreated cells: ADCs 2 μg/mL, MMAE 10 or 50 nM, paclitaxel 1 μM; for percentage of calreticulin positive cells: compared to untreated or isotype control ADC
Method: as §4

[7] = system: BLM human melanoma cell line-derived xenograft; assay: BLM melanoma xenograft model with MART-1-specific human T cells; assay type: in vivo, mice; conditions: ADC single dose 4 mg/kg i.v. with control or MART-1 T cells; anti-PD1 5 mg/kg weekly i.p. with MART-1 T cells and control ADC
Method: The anti-tumor activity of IgG1-AXL-107-vcMMAE in combination with anti-PD1 (pembrolizumab) was evaluated in the BLM human melanoma cell line-derived xenograft model in mice, which systemically received human T-cells that were engineered to express a melanoma-specific T-cell receptor (TCR) against MART-1. Before inoculation of mice with BLM cells, the BLM cells were transduced with the antigen (MART-1) as well as the correct HLA haplotype (HLA-A2) in order for the MART-1-specific T cells to recognize the tumor cells.
Melanoma cell line BLM was cultured in DMEM (Gibco), with fetal bovine serum (Sigma), 100 U/mL penicillin (Gibco) and 0.1 mg/mL streptomycin (Gibco) under standard conditions, and was regularly confirmed to be mycoplasma-free by PCR. […]
(§5) 8-14 week old male and female NOD-SCID Gamma (NSGTM) mice (bred in-house at the Netherlands Cancer Institute (NKI), Amsterdam, The Netherlands) were subcutaneously injected in the right flank with 1×10^6 BLM tumor cells. Tumors were measured three times per week with a caliper, and when tumors were 100 mm3 (after 7 days) the animals were randomized over the following treatment groups: • 1. […]
(§6) Tumor volumes were measured 3 times per week by an independent animal technician in a blinded fashion. Tumor volume was calculated as follows: […]. […]

[8] = system: LCLC-103H NSCLC cell line-derived xenograft; assay: LCLC-103H NSCLC xenograft model with MART-1-specific human T cells; assay type: in vivo, mice; conditions: ADC 1 mg/kg weekly i.v. with control T cells; anti-PD1 5 mg/kg weekly i.p. with MART-1 T cells and control ADC
Method: The anti-tumor activity of IgG1-AXL-107-vcMMAE in combination with anti-PD1 (pembrolizumab) was evaluated in the LCLC-103H NSCLC cell line-derived xenograft model in mice, which systemically received human T-cells that were engineered to express a specific T-cell receptor (TCR) against MART-1. Before inoculation of mice with LCLC-103H cells, the LCLC-103H cells were transduced with the antigen (MART-1) as well as the correct HLA haplotype (HLA-A2) in order for the MART-1-specific T cells to recognize the tumor cells.
as §5, with “50” for “100”, “16 days), mice” for “7 days) the animals”, “1. Control T cells+Control ADC (n=7) • 2. MART-1 T cells+Control ADC (n=7) • 3. MART-1 T cells+Control ADC+anti-PD1 (n=7) • 4. Control T cells+IgG1-AXL-107-vcMMAE (n=11) • 5. MART-1 T cells+IgG1-AXL-107-vcMMAE (n=11) • 6. MART-1 T cells+IgG1-AXL-107-vcMMAE+anti-PD1 (n=11)” for “1.”
as §6

[9] = hypotonic conditions (70% PBS), ADCs 2 μg/mL, MMAE 50 nM, paclitaxel 1 μM

Compound	ATP release compared to untreated cells (LCLC-103H cells [1])	ATP release compared to untreated cells (MDA-MB-231 cells [2]; 100% PBS, 10 nM MMAE)	ATP release compared to untreated cells (MDA-MB-231 cells [2]; hypotonic conditions (70% PBS), 10 nM MMAE) [fold]	ATP release compared to untreated cells (MDA-MB-231 cells [2]; [9])	HMGB1 secretion compared to untreated cells (LCLC-103H cells [3])	HMGB1 secretion compared to untreated cells (MDA-MB-231 cells [4])	cell surface expression of calreticulin (MFI) compared to untreated cells (LCLC-103H cells [5])	percentage of calreticulin positive cells (LCLC-103H cells [5])	cell surface expression of calreticulin (MFI) compared to untreated cells (MDA-MB-231 cells [6])	percentage of calreticulin positive cells (MDA-MB-231 cells [6])	anti-tumor effect (tumor size) [7]	anti-tumor effect (tumor size) [8]
CC[C@H](C)[C@@H]([C@@H](CC(=O)N1CCC[C@H]1[C@H](OC)[C@@H](C)C(=O)N[C@H](C)[C@@H](O)c1ccccc1)OC)N(C)C(=O)[C@@H](NC(=O)[C@@H](NC)C(C)C)C(C)C [MMAE, monomethyl auristatin E] (H-[NMeV]V[Dil][Dolaproine]-X1)	comparable levels	about 10 fold	~26	about 10 fold	similar	around 4 fold	comparable	increased	comparable	increased		
CC(=O)O[C@H]1C(=O)[C@@]2(C)[C@H]([C@H](OC(=O)c3ccccc3)[C@]3(O)C[C@H](OC(=O)[C@H](O)[C@@H](NC(=O)c4ccccc4)c4ccccc4)C(C)=C1C3(C)C)[C@]1(OC(C)=O)CO[C@@H]1C[C@@H]2O [paclitaxel]	comparable levels			~15 fold	about 11 fold	around 4 fold	comparable	increased	comparable	increased		
anti-PD1: anti-PD1 antibody pembrolizumab (KEYTRUDA, MSD), obtained from SelleckChem											no enhanced tumor growth inhibition	no enhanced tumor growth inhibition
